Assay results: patent publication US20200222474A1, “COMPOSITIONS AND METHODS FOR INCREASING PHYTOCHEMICAL BIOAVAILABLITY AND BIOACTIVITY” (North Carolina State University, priority 2017, published 2020)

Test system: L. acidophilus NCFM
Assay: RNA-seq transcriptional analysis of L. acidophilus NCFM growing on plant glycosides
Assay type: cell-based, Lactobacillus acidophilus
[1] = LBA1481 D-ribose-binding protein precursor, COG G
[2] = LBA1482 Ribose ABC transporter, COG G
[3] = LBA1483 Ribose ABC transporter ATP binding protein, COG G
[4] = LBA1484 D-ribose pyranase, COG G
[5] = LBA1494 Lincomycin-resistance protein, COG GEPR
[6] = LBA1607 Phosphatidylserine decarboxylase precursor, COG I
[7] = LBA1632 NAD-dependent aldehyde dehydrogenase, COG C
[8] = LBA1653 Nicotinamide mononucleotide, COG H
[9] = LBA1684 Putative PTS system IIA component, COG G
[10] = LBA1689 Maltose-6′-phosphate Oucosidase, COG G
[11] = LBA1700 Transcriptional regulator-type, COG K
[12] = LBA1701 Melibiose operon regulatory protein, COG K
[13] = LBA1705 PTS system IIBC component, COG G
[14] = LBA1708 Transcriptional antiterminator, COG K
[15] = LBA1710 Thermostable pullulanase, COG G
[16] = LBA1812 Alpha-glucosidase II, COG G
[17] = LBA1870 Maltose phosphorylase, COG G
[18] = LBA1872 Oligo-1,6-glucosidase, COG G
[19] = LBA1955 Transcription regulator family protein, COG K
[20] = gene LBA0046 (Hypothetical protein)
[21] = gene LBA0149 (Putative nucleotide-binding protein)
[22] = gene LBA0263 (Hypothetical protein)

## O=c1ccc2cc(O[C@@H]3O[C@H](CO)[C@@H](O)[C@H](O)[C@H]3O)c(O)cc2o1 [Esculin]
LBA1468 Beta-galactosidase small subunit, COG G
  Transcripts per million (rpm): 38.7 rpm
[1]
  Log2 differential normalized TPM ratio compared to glucose: 0.9
  Log2 differential normalized TPM ratio compared to lactose: 0.1
  Transcripts per million (rpm): 9.2 rpm
[2]
  Log2 differential normalized TPM ratio compared to glucose: 1
  Log2 differential normalized TPM ratio compared to lactose: 0
  Transcripts per million (rpm): 8.1 rpm
[3]
  Log2 differential normalized TPM ratio compared to glucose: 0.4
  Log2 differential normalized TPM ratio compared to lactose: −0.7
  Transcripts per million (rpm): 4.2 rpm
[4]
  Log2 differential normalized TPM ratio compared to glucose: 0.4
  Log2 differential normalized TPM ratio compared to lactose: −0.3
  Transcripts per million (rpm): 5.3 rpm
LBA1485 Ribokinase, COG G
  Log2 differential normalized TPM ratio compared to glucose: −0.3
  Log2 differential normalized TPM ratio compared to lactose: −1
  Transcripts per million (rpm): 2.7 rpm
[5]
  Log2 differential normalized TPM ratio compared to glucose: 3.6
  Log2 differential normalized TPM ratio compared to lactose: 3.6
  Transcripts per million (rpm): 69.4 rpm
[6]
  Log2 differential normalized TPM ratio compared to glucose: 1.5
  Log2 differential normalized TPM ratio compared to lactose: 0.5
  Transcripts per million (rpm): 59.5 rpm
[7]
  Log2 differential normalized TPM ratio compared to glucose: 3.3
  Log2 differential normalized TPM ratio compared to lactose: 1.5
  Transcripts per million (rpm): 730.5 rpm
[8]
  Log2 differential normalized TPM ratio compared to glucose: 2
  Log2 differential normalized TPM ratio compared to lactose: 1.4
  Transcripts per million (rpm): 996.7 rpm
[9]
  Log2 differential normalized TPM ratio compared to glucose: 2.9
  Log2 differential normalized TPM ratio compared to lactose: 1
  Transcripts per million (rpm): 98.9 rpm
[10]
  Log2 differential normalized TPM ratio compared to glucose: 1.8
  Log2 differential normalized TPM ratio compared to lactose: 0.3
  Transcripts per million (rpm): 12.7 rpm
[11]
  Log2 differential normalized TPM ratio compared to glucose: 1.5
  Log2 differential normalized TPM ratio compared to lactose: 1
  Transcripts per million (rpm): 61.9 rpm
[12]
  Log2 differential normalized TPM ratio compared to glucose: 4.9
  Log2 differential normalized TPM ratio compared to lactose: 4.1
  Transcripts per million (rpm): 1259.8 rpm
[13]
  Log2 differential normalized TPM ratio compared to glucose: 2.2
  Log2 differential normalized TPM ratio compared to lactose: 1.3
  Transcripts per million (rpm): 15.9 rpm
[14]
  Log2 differential normalized TPM ratio compared to glucose: 1.4
  Log2 differential normalized TPM ratio compared to lactose: 0
  Transcripts per million (rpm): 1.6 rpm
[15]
  Log2 differential normalized TPM ratio compared to glucose: 0.3
  Log2 differential normalized TPM ratio compared to lactose: −0.1
  Transcripts per million (rpm): 9.6 rpm
LBA1723 Transposase, COG L
  Log2 differential normalized TPM ratio compared to glucose: 0
  Log2 differential normalized TPM ratio compared to lactose: −0.2
  Transcripts per million (rpm): 55.8 rpm
[16]
  Log2 differential normalized TPM ratio compared to glucose: 2.8
  Log2 differential normalized TPM ratio compared to lactose: 0.8
  Transcripts per million (rpm): 120.6 rpm
[17]
  Log2 differential normalized TPM ratio compared to glucose: 0
  Log2 differential normalized TPM ratio compared to lactose: 1.2
  Transcripts per million (rpm): 109.2 rpm
LBA1871 Neopullulanase, COG G
  Log2 differential normalized TPM ratio compared to glucose: 2.1
  Log2 differential normalized TPM ratio compared to lactose: 1.4
  Transcripts per million (rpm): 12.2 rpm
[18]
  Log2 differential normalized TPM ratio compared to glucose: 1
  Log2 differential normalized TPM ratio compared to lactose: 0.6
  Transcripts per million (rpm): 6.3 rpm
LBA1873 Acetate kinase, COG C
  Log2 differential normalized TPM ratio compared to glucose: 0.8
  Log2 differential normalized TPM ratio compared to lactose: −0.5
  Transcripts per million (rpm): 6.4 rpm
LBA1878 Glycerol kinase, COG C
  Log2 differential normalized TPM ratio compared to glucose: 2.1
  Log2 differential normalized TPM ratio compared to lactose: 2
  Transcripts per million (rpm): 38 rpm
[19]
  Log2 differential normalized TPM ratio compared to glucose: −1.3
  Log2 differential normalized TPM ratio compared to lactose: −0.9
  Transcripts per million (rpm): 218.2 rpm
RNA-seq, compared to glucose
  number of up-regulated genes: 87 genes
RNA-seq, up-regulated genes not shared with the other PGs
  number of uniquely induced genes: 35
[20]
  Log2 differential normalized TPM ratio compared to glucose: 2.2
  Log2 differential normalized TPM ratio compared to lactose: 1.5
  Transcripts per million (rpm): 1439.6 rpm
[21]
  Log2 differential normalized TPM ratio compared to glucose: 1.4
  Log2 differential normalized TPM ratio compared to lactose: 0.6
  Transcripts per million (rpm): 1325.7 rpm
[22]
  Log2 differential normalized TPM ratio compared to glucose: 1.8
  Log2 differential normalized TPM ratio compared to lactose: 1.1
  Transcripts per million (rpm): 59.9 rpm
